Results from US20250026741A1, “INHIBITORS OF THE ONCOGENIC SHP2 PHOSPHATASE AND USES THEREOF” (Sanford Burnham Prebys Medical Discovery Institute, priority 2021, published 2025).
Read-outs that look alike come from different tables or passages of the source.

Key:
[1] = target: full-length SHP2-E76K oncogenic mutant (Homo sapiens (Human), UniProt Q06124, E76K); test: DiFMUP fluorescence intensity phosphatase inhibition assay, SHP2-E76K; type: biochemical
Procedure, shortened: (§1)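 DiFMUP at its Km per construct (60 μM WT, 20 μM E76K and SHP2cat), 0.5 nM enzyme, pH 6.0 Bis-Tris, RT; SHP2-WT preactivated with 500 nM bis-phospho IRS-1 peptide; 20 min inhibitor preincubation. Kinetic fluorescence (ex 360/em 460 nm); IC50 from background-corrected initial rates, 10-point curves.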

[2] = target: full-length SHP2 wild-type (SHP2-WT) (Homo sapiens (Human), UniProt Q06124); test: DiFMUP fluorescence intensity phosphatase inhibition assay, SHP2-WT activated with IRS-1 peptide; type: biochemical; details: DiFMUP at Km (60 μM), IRS-1 peptide activated
Procedure, shortened: as §1

[3] = target: SHP2 catalytic domain (SHP2cat; residues 248-527) (Homo sapiens (Human), UniProt Q06124); test: DiFMUP fluorescence intensity phosphatase inhibition assay, SHP2cat; type: biochemical
From the text: To test the synthesized compounds for their potential to inhibit SHP2 activity, a fluorescence intensity-based assay using 6,8-difluoro-4-methylumbelliferyl phosphate (DiFMUP) as the substrate was adapted for three recombinant SHP2 constructs: 1) the SHP2 catalytic domain (SHP2cat; residues 248-527), 2) the full-length SHP2-E76K oncogenic mutant, and 3) the full-length SHP2 wild-type (SHP2-WT). The recombinant SHP2 proteins were expressed and purified. A dually phosphorylated peptide derived from the insulin receptor substrate 1 (IRS-1) served as a surrogate binding protein and was used to activate SHP2-WT. […] Michaelis-Menten experiments to determine the DiFMUP Michaelis-Menten constant (Kmn) for each SHP2 construct were performed and yielded the following values: SHP2-WT, Km=60 μM; SHP2-E76K, Km=20 μM; SHP2cat, Km=20 μM. Relative maximum rates (Vmax) of the DiFMUP reactions were as follows: SHP2-WT, Vmax=871 AFU/min; SHP2-E76K, Vmax, =2730 AFU/min; SHP2cat, Vmax=2912 AFU/min. IC50 values for each compound were determined from initial rates in 10-point dose-response assays using DiFMUP at a concentration corresponding to its Km value for the respective SHP2 construct.
(§2) SHP2 inhibitors were tested at room temperature (RT) in a 384-well plate format standard phosphatase fluorescence intensity assay using DiFMUP (Invitrogen/Thermo Fisher Scientific, Carlsbad, CA) as a substrate and a total reaction volume of 25 μL. SHP2 inhibitors or vehicle (DMSO) were spotted in triplicate into a black Greiner FLUOTRAC™ 200 384-well microplate (#781076, Greiner) for a 10-point dose-response assay using an Echo®555 Liquid Handler (Labcyte, Inc., San Jose, CA). PTP working solutions were prepared at a 0.625 nM concentration (for a final concentration of 0.5 nM) in buffer containing 50 mM Bis-Tris pH 6.0, 50 mM NaCl, 5 mM DTT, and 0.01% Tween® 20. Prior to the assay, a dually phosphorylated insulin receptor substrate 1 (IRS-1) peptide [625 nM (500 nMfinal) (30)] was added to full-length WT SHP2 working solutions and incubated for 20 min. DiFMUP working solutions at 5× final concentration were prepared in 50 mM Bis-Tris pH 6.0, 50 mMNaCl, and 0.01% Tween 20. 20 μL of PTP working solution was dispensed into the microplate and incubated with inhibitor for 20 min at RT. […] The reaction was initiated by addition of 5 μL DiFMUP working solutions. Fluorescence intensity was measured in kinetic mode (every minute for 7 or 10 min) using a Tecan Spark® Multimode Microplate Reader (Tecan, Groedig, Austria) with an excitation wavelength of 360 nm and an emission wavelength of 460 nm. The initial rates were determined from the linear progression curves of the PTP reaction. The nonenzymatic hydrolysis of the substrate was corrected by using a control without addition of enzyme. IC50 values were calculated from the corrected initial rates by nonlinear regression using the program GraphPad Prism (GraphPad Software, Inc., San Diego, CA) Version 8. Dose-response inhibition assays of SHP2cat using the substrate OMFP were performed similarly as described above for DiFMUP. OMFP was used at a concentration corresponding to its Km value for SHP2cat (50 μM final). Fluorescence intensity was measured in kinetic mode (every minute for 10 min) using a Tecan Spark Multimode Microplate Reader with an excitation wavelength of 485 nm and an emission wavelength of 535 nm. Initial rates were determined and IC50 vales calculated as described above.

PTP1B catalytic domain = PTP1B catalytic domain (Homo sapiens (Human), UniProt P18031); test: DiFMUP phosphatase inhibition assay, PTP1B; type: biochemical; details: for IC50: catalytic domain, DiFMUP at Km (25 μM); for fold selectivity for SHP2 over PTP1B: from IC50 values against catalytic domains
Protocol: (§3) Selectivity is one of the biggest challenges in PTP inhibitor development. […] Similar to SHP2, we adapted a 384-well plate format DiFMUP assay for recombinant PTP1B and STEP and performed Michaelis-Menten experiments to determine DiFMUP Km values for each phosphatase. IC50 values of our inhibitors for PTP1B and STEP were determined in 10-point dose-response assays with DiFMUP used at the concentration corresponding to the respective Km value. […] Other inhibitors with good relative selectivity for SHP2 included #02 (13-fold selective over PTP1B; 73-fold selective over STEP) and #05 (5-fold selective over PTP1B; >71-fold selective over STEP).
as §2

[4] = target: striatal-enriched tyrosine phosphatase (STEP) catalytic domain (Homo sapiens (Human), UniProt P54829); test: DiFMUP phosphatase inhibition assay, STEP; type: biochemical; details: for IC50: catalytic domain, DiFMUP at Km (4 μM); for fold selectivity for SHP2 over STEP: from IC50 values against catalytic domains
Protocol: as §3, §2

SHP2cat = SHP2cat (Homo sapiens (Human), UniProt Q06124); test: OMFP fluorescence intensity inhibition assay, SHP2cat; type: biochemical; details: OMFP at Km (50 μM); read-out: IC50 against SHP2cat with OMFP
From the text: We confirmed specific and dose-dependent binding of inhibitors to SHP2 by protein thermal shift, which monitors the thermal stability of a target protein in vitro. […] In addition, we confirmed the inhibitory activity of several furanylbenzamide inhibitors, including the top two compounds #02 and #01, in SHP2cat inhibition assays using the alternative substrate 3-O-methylfluorescein phosphate (OMFP), which features a peak fluorescence emission that is red-shifted by […] compared to DiFMUP. The Km value of OMFP for SHP2cat was determined to be 50 μM. An OMFP fluorescence intensity-based assay was used to perform inhibitor dose-response experiments and determine IC50 values.
SHP2 inhibitors were tested at room temperature (RT) in a 384-well plate format standard phosphatase fluorescence intensity assay using DiFMUP (Invitrogen/Thermo Fisher Scientific, Carlsbad, CA) as a substrate and a total reaction volume of 25 μL. […] Fluorescence intensity was measured in kinetic mode (every minute for 7 or 10 min) using a Tecan Spark® Multimode Microplate Reader (Tecan, Groedig, Austria) with an excitation wavelength of 360 nm and an emission wavelength of 460 nm. The initial rates were determined from the linear progression curves of the PTP reaction. […] Initial rates were determined and IC50 vales calculated as described above.

[5] = system: MLL-AF10 leukemia cells expressing wild-type SHP2; test: Cell viability assay, MLL-AF10 cells expressing wild-type SHP2; type: cell-based, mouse; details: Mus musculus
Protocol: Cell viability assays of SHP099, #01, and #02 against mouse MLL-AF10 leukemia cells were conducted. Two MLL-AF10 cell lines were employed, one expressing wild-type SHP2, and the other expressing E76K mutant SHP2.

[6] = DiFMUP at Km (20 μM), 10-point dose-response, read-out: SHP2-E76K IC50
[7] = DiFMUP at Km (20 μM), read-out: SHP2cat IC50
[8] = catalytic domain, DiFMUP at Km, read-out: SHP2 IC50

Chain of SHP2 catalytic domain (SHP2cat; residues 248-527) (Q06124 248-527): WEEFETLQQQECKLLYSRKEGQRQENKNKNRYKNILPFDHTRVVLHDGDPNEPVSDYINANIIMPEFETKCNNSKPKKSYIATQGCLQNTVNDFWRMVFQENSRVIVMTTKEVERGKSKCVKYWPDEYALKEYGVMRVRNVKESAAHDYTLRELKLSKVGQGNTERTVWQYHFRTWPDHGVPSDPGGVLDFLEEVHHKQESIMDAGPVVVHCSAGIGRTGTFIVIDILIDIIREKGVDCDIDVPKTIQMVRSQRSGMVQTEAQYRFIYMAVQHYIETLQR
Chain of PTP1B catalytic domain (P18031 1-300): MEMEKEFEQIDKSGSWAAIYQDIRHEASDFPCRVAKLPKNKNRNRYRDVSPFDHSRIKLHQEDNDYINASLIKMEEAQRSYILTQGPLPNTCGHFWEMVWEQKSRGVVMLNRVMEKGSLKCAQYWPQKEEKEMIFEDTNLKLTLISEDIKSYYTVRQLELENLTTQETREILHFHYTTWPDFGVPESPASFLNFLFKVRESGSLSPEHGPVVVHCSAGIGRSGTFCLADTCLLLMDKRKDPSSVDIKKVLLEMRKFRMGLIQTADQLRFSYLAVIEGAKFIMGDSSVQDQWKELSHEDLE
Chain of full-length SHP2-E76K oncogenic mutant (Q06124 whole entry E76K): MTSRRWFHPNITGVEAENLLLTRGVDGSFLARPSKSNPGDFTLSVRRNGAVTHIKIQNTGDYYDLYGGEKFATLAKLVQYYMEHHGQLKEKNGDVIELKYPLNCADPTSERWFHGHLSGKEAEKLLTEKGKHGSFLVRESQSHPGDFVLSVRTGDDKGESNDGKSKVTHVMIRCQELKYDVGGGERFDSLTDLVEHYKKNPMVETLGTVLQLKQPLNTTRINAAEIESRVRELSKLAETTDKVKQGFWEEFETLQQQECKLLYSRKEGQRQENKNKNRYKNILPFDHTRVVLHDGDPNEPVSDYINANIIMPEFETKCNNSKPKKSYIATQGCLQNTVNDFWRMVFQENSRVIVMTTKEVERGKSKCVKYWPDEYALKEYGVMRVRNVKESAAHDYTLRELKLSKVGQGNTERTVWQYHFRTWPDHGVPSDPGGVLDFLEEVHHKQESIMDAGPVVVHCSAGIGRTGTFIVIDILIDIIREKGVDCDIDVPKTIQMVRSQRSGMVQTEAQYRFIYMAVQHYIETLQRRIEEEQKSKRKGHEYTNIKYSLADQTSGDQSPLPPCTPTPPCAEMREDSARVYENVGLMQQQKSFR
Chain of striatal-enriched tyrosine phosphatase (STEP) catalytic domain (P54829 280-565 limits assumed): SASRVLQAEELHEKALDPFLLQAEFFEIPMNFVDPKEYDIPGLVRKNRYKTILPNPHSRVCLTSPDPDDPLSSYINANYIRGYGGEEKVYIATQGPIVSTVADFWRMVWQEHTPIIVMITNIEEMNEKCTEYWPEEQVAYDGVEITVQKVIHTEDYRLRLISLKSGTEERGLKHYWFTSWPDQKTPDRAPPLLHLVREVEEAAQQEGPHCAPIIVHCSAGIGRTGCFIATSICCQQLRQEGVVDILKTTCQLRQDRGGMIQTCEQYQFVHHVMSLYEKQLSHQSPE
Chain of SHP2cat (Q06124 248-527): as the sequence (Q06124 248-527) above

IC50 [1, 6]	IC50 [2]	IC50 [3, 7]	IC50 [3, 8]	IC50 (PTP1B catalytic domain)	fold selectivity for SHP2 over PTP1B (PTP1B catalytic domain)	IC50 [4]	fold selectivity for SHP2 over STEP [4]	IC50 (SHP2cat)	IC50 [5]	IC50 ([1]; IC50 against SHP2-E76K, in vitro phosphatase inhibition assay, screening hit, heading: IC50 against SHP2-E76K)	SMILES
≤ 1000 nM	1000 to 20000 nM	≤ 1000 nM	220 nM	6800 nM	31 fold	44000 nM	200 fold	1200 nM	916 nM	–	Nc1ccc(NC(=O)c2cc(-c3ccc(/C=C4\Sc5ccccc5C4=O)o3)ccc2O)cc1 [#01, (Z)—N-(4-Aminophenyl)-2-hydroxy-5-(5-((3-oxobenzo[b]thiophen-2(3H)-ylidene)methyl)furan-2-yl)benzamide]
1000 to 20000 nM	1000 to 20000 nM	≤ 1000 nM	730 nM	9400 nM	13 fold	53000 nM	73 fold	440 nM	2000 nM	1800 nM	O=C(Nc1ccccc1)c1cc(-c2ccc(/C=C3\Sc4ccccc4C3=O)o2)ccc1O [#02, (Z)-2-hydroxy-5-(5-((3-oxobenzo[b]thiophen-2(3H)-ylidene)methyl)furan-2-yl)-N-phenylbenzamide]
1000 to 20000 nM	1000 to 20000 nM	1000 to 20000 nM	1400 nM	7400 nM	5 fold	> 100000 nM	–	–	–	–	N#Cc1cc(-c2ccc(/C=C3\Sc4ccccc4C3=O)o2)ccc1O [#05, (Z)-2-Hydroxy-5-(5-((3-oxobenzo[b]thiophen-2(3H)-ylidene)methyl)furan-2-yl)benzonitrile]
